# Results taken from article PMC10451632, “Site Mutation Improves the Expression and Antimicrobial Properties of Fungal Defense” (Antibiotics, 2023).
# Entries after “also recorded” stand apart in the source; their conditions may differ. Bridge positions count the residues as written; N and C are the ends. Peptide text beside a SMILES is read from it.
# Key:
# E. coli O157 = experiment: MIC, microtiter broth dilution; type: cell-based, Escherichia coli; conditions: MHB, 10^5 CFUs/mL, 16–18 h at 37 °C
# Method: (§1) The MIC value of PN7 against bacteria was determined by the microtiter broth dilution method. Briefly, bacteria grown to the exponential phase were diluted into MHB; subsequently, 90 μL of bacterial suspension (10^5 CFUs/mL) was mixed with 10 μL of different concentrations of PN7 in a sterilized 96-well microtiter plate (Nunc). MIC values were recorded after incubation for 16–18 h at 37 °C based on the lowest concentrations of peptides in which no visible bacterial growth was observed.
# E. coli CVCC 1515 = experiment: MIC, microtiter broth dilution; type: cell-based, Escherichia coli; conditions: MHB, 10^5 CFUs/mL, 16–18 h at 37 °C
# Method: as §1
# E. coli ATCC 25922 = experiment: MIC, microtiter broth dilution; type: cell-based, Escherichia coli; conditions: MHB, 10^5 CFUs/mL, 16–18 h at 37 °C
# Method: as §1
# [1] = Serum stability, MIC read-out; type: in vitro ADME; conditions: 25% or 50% mouse serum, 1280 μg/mL PN7, 37 °C, triplicate
# Method: The stability of peptide PN7 in SGF, SIF, and 25% or 50% mouse serum was carried out as previously described. A final concentration of 1280 μg/mL PN7 was prepared and incubated at 37 °C and then diluted twice. The MIC was determined.
# [2] = test system: Staphylococcus aureus ATCC 43300; experiment: microbe, parasite or virus in culture; type: cell-based
# Method: The experimental operation of the expression of the Plectasin variant in P. pastoris in well plates, shaking flasks, and 5 L level fermentation was performed as referenced in previous studies. Candidates were identified through three different levels of screening. Firstly, a large number of transformants were screened through well plates to induce expression and determined by the inhibition zone assay (against S. aureus ATCC 43300). Secondly, the transformants with obvious inhibition zones were sequenced to obtain protein sequence information, then induced expression at the shake level. The supernatant was collected and purified to obtain the target protein; the anti-Staphylococcus aureus activity of the protein was detected by a MIC assay. Finally, the codons of candidate sequences were optimized, the expression vector was reconstructed, the optimal transformers were obtained, and the high-density cultivation was performed in a 5 L fermenter. The final agent was determined by high protein yield and good activity (Figure 2).
# as §1
# S. aureus ATCC 43300 = experiment: Time-killing curves; type: cell-based, Staphylococcus aureus; conditions: for reduction of bacterial counts during the first two hours: initial inoculum 5.15 Log10 CFU/mL, MHB, 37 °C, 250 rpm, triplicate
# Method: S. aureus ATCC 43300 was cultured to the logarithmic stage, MHB medium was used for adjusting the concentration of bacterial suspension, and PN7 (1×, 2× and 4× MIC), Plectasin (1×, 2× and 4× MIC) and 2× MIC vancomycin (the MIC was 1 μg/mL) were added into the suspensions containing 10^5 CFU/mL bacteria (after the count of viable bacteria detection, the initial inoculation amount was 5.15 Log10 CFU/mL), cultured at 37 °C and 250 rpm. A 100 CFU/mL is considered the detection limit. […] In contrast, the count was reduced by 1.6 Log10 CFU/mL after treatment with 2× MIC vancomycin, an approximately 66% population decrease of target pathogens compared with the PN7 treatment group at the same time point of the second hour. After 4 h, the colony number of the peptide treatment group was almost 0, while that of the vancomycin treatment group was 0 after 8 h, at 4 h later than the PN7 treatment. At 24 h, the number of colonies of only 1× MIC Plectasin treatment group rebounded, while no such phenomenon occurred in the other treatment groups.
# S. aureus ATCC 43300 was cultured to the logarithmic stage. MHB medium adjusted the concentration of bacterial suspension, and PN7 (1×, 2× and 4× MIC) was added into the suspensions containing 10^5 CFU/mL bacteria, cultured at 37 °C and 250 rpm. 1×, 2×, 4× MIC Plectasin and 2× MIC vancomycin were used as positive controls, and the group treated without antibiotics was used as the blank controls. Then, 100 μL samples were taken at different time points and were continuously diluted and coated on MHA medium for colony counting. A 100 CFU/mL is considered the detection limit.
# ICR mice = experiment: In vivo toxicity, intraperitoneal injection; parameters: species or system mouse
# Method: ICR mice (6–8 weeks old, male, n = 5 per group; Charles River, Beijing, China) were intraperitoneally injected with PN7 (10 mg/kg, body weight) for 6 days, and the changes in mice behavior and body weight were recorded. At the same time, blood and organ tissues were collected for whole-blood cell and biochemical index analysis and H.E. staining.
# [3] = 10 mg/kg daily intraperitoneal injection for 6 days, n = 5 per group
smiles,measurement,setting,value
"CC[C@H](C)[C@@H]1NC(=O)[C@H](CO)NC(=O)[C@H](CCCCN)NC(=O)[C@@H]2CSSC[C@@H](C(=O)N[C@@H](Cc3ccc(O)cc3)C(=O)O)NC(=O)[C@H](CCCCN)NC(=O)[C@@H]3CSSC[C@H](NC(=O)[C@H](CCCNC(=N)N)NC(=O)CNC(=O)[C@H](CC(=O)O)NC(=O)[C@H](CC(=O)O)NC(=O)[C@H](CCC(=O)O)NC(=O)[C@H](Cc4ccc(O)cc4)NC(=O)[C@H](Cc4c[nH]c5ccccc45)NC(=O)[C@@H]4CCCN4C(=O)CNC(=O)[C@H](CC(N)=O)NC(=O)[C@@H](NC(=O)CNC(=O)[C@H](Cc4ccccc4)NC(=O)CN)CSSC[C@H](NC(=O)[C@H](Cc4ccc(O)cc4)NC(=O)CNC(=O)CNC(=O)[C@H](CCCCN)NC(=O)[C@H](Cc4ccc(O)cc4)NC(=O)CNC(=O)[C@H](CCCCN)NC1=O)C(=O)N[C@@H](C)C(=O)N[C@@H](CCCCN)C(=O)NCC(=O)NCC(=O)N[C@@H](Cc1ccccc1)C(=O)N[C@@H](C(C)C)C(=O)N3)C(=O)N[C@@H](Cc1c[nH]cn1)C(=O)N[C@@H](CC(N)=O)C(=O)N[C@@H](Cc1c[nH]cn1)C(=O)N2 [PN7] (H-GFGCNGPWYEDDGRCHNHCKSIKGYKGGYCAKGGFVCKCY-OH; disulfide 4-30, 15-37, 19-39 (inferred); N-terminus and C-terminus assumed)",MIC,E. coli O157,>128 mg/L
same,MIC,E. coli CVCC 1515,>128 mg/L
same,MIC,E. coli ATCC 25922,>128 mg/L
same,serum stability,[1],strong resistance to the serum effect; also recorded: stable in serum
same,MIC,"[2]; S. aureus 43300, purified protein induced by shaking flasks",4 mg/L
same,MIC,"[2]; microtiter broth dilution, MHB, 10^5 CFUs/mL, 16–18 h at 37 °C",8 mg/L
same,reduction of bacterial counts during the first two hours,S. aureus ATCC 43300; 1× MIC,2.25 Log10 CFU/mL
same,reduction of bacterial counts during the first two hours,S. aureus ATCC 43300; 2× MIC,2.42 Log10 CFU/mL
same,reduction of bacterial counts during the first two hours,S. aureus ATCC 43300; 4× MIC,2.72 Log10 CFU/mL
same,time to kill 99% of S. aureus ATCC 43300,"S. aureus ATCC 43300; time-kill, 2× MIC",≤ 2 h
same,histological morphology of mouse organs (H&E),ICR mice; [3],showed no difference
same,murine behavior and body weight,ICR mice; [3],did not observe a change in murine behavior or the loss of body weight
same,"toxicity to mice, overall","ICR mice; intraperitoneal injection for 6 d, observation 1 week",no toxicity; also recorded: no significant differences compared with the control group
